Results published in US20250271426A1, “REDUCTION OF BITTER TASTE OF ACTIVE PHARMACEUTICAL INGREDIENTS AND RELATED ASSAYS AND SCREENING METHODS” (Firmenich Incorporated, priority 2022, published 2025).

Tests used:
Assay in all cases: FLIPR calcium assay, cells with promiscuous G protein transfected with bitter receptor cDNA
Assay type in all cases: cell-based
Details in all cases: responsive if cellular response of >10% over baseline, Fluo4-AM
[1] = biological target: T1, T2R receptor SEQ ID NO: 4 (S4) (Homo sapiens, UniProt Q9NYV8)
T1 construct: expressed in transfected cells; host or cells: cells expressing a promiscuous G protein (e.g., G16g44)
T1 sequence (Q9NYV8 1-317): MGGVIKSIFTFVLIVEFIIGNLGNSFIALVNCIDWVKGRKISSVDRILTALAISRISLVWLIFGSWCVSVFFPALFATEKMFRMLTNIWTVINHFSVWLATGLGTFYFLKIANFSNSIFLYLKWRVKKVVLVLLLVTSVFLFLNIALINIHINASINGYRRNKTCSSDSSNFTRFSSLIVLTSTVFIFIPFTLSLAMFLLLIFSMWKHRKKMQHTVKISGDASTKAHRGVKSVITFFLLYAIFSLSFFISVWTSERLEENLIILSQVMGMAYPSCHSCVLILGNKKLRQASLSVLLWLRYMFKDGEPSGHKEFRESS
In short: (§1)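 Cells carrying promiscuous G protein G16g44 were transfected with a single bitter receptor cDNA each, cultured 28 hours, then loaded with Fluo4-AM for 60 minutes. After washing, agonist addition and intracellular fluorescence were recorded together by FLIPR. A receptor counted as responsive at >10% over baseline.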

[2] = biological target: T2, T2R receptor SEQ ID NO: 1 (S1) (Homo sapiens, UniProt Q9NYW7)
T2 construct: expressed in transfected cells; host or cells: cells expressing a promiscuous G protein (e.g., G16g44)
T2 sequence (Q9NYW7 1-299): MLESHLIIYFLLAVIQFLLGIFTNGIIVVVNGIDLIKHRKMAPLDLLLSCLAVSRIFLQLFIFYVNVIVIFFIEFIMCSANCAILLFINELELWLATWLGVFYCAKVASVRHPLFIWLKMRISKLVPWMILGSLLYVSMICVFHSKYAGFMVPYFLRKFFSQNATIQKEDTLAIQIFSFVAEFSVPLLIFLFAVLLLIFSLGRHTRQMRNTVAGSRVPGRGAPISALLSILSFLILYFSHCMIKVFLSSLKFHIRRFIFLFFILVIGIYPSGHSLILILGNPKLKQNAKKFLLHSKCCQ
In short: as §1

[3] = biological target: T3, T2R receptor SEQ ID NO: 6 (S6) (Homo sapiens, UniProt P59540)
T3 construct: expressed in transfected cells; host or cells: cells expressing a promiscuous G protein (e.g., G16g44)
T3 sequence (P59540 1-309): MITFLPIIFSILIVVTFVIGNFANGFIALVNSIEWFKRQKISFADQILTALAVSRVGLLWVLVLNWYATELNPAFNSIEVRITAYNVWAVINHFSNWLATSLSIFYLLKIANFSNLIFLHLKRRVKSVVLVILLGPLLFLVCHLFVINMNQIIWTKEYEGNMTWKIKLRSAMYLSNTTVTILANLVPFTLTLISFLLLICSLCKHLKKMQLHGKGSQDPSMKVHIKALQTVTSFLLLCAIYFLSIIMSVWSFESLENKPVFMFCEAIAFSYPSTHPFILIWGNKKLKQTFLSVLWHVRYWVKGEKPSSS
In short: as §1

[4] = biological target: T4, T2R receptor SEQ ID NO: 3 (S3) (Homo sapiens, UniProt Q9NYW0, T156M)
T4 construct: expressed in transfected cells; host or cells: cells expressing a promiscuous G protein (e.g., G16g44)
T4 sequence (Q9NYW0 1-307 T156M): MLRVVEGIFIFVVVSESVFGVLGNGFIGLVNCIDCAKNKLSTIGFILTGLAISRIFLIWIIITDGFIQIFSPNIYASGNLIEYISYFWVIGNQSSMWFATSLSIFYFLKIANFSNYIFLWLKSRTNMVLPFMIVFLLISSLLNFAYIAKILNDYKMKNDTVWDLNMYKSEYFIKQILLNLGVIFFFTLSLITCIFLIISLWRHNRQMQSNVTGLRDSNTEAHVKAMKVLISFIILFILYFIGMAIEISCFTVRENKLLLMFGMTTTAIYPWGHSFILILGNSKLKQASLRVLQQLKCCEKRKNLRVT
In short: as §1

[5] = biological target: T5, T2R receptor SEQ ID NO: 5 (S5) (Homo sapiens, UniProt P59534)
T5 construct: expressed in transfected cells; host or cells: cells expressing a promiscuous G protein (e.g., G16g44)
T5 sequence (P59534 18-338): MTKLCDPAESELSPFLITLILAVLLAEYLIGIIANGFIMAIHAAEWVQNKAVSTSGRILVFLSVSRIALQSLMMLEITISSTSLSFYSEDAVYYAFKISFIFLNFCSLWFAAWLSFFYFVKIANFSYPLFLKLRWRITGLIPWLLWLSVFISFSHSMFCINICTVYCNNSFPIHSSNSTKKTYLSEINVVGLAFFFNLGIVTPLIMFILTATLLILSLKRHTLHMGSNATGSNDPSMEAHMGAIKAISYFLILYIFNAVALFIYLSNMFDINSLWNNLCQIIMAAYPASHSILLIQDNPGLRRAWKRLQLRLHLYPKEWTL
In short: as §1

[6] = biological target: T6, T2R receptor SEQ ID NO: 2 (S2) (Homo sapiens, UniProt Q9NYW2)
T6 construct: expressed in transfected cells; host or cells: cells expressing a promiscuous G protein (e.g., G16g44)
T6 sequence (Q9NYW2 1-309): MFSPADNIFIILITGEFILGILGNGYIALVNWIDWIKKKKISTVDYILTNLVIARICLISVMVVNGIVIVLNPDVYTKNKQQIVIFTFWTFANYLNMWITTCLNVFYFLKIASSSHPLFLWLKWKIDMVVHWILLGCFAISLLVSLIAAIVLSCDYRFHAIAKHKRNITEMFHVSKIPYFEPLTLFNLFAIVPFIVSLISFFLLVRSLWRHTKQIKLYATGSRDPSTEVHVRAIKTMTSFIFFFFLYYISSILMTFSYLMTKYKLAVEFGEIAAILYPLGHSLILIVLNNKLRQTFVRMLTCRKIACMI
In short: as §1

Row | Compound | S4 positive response of T2R receptor to API [1] | S1 positive response of T2R receptor to API [2] | S6 positive response of T2R receptor to API [3] | S3 positive response of T2R receptor to API [4] | S5 positive response of T2R receptor to API [5] | S2 positive response of T2R receptor to API [6]
1 | O=C(O)COCCN1CCN(C(c2ccccc2)c2ccc(Cl)cc2)CC1 (stereo not drawn) [Cetirizine] | + (a “+” to indicate whether a particular T2R receptor showed a positive response to a particular API) | + (a “+” to indicate whether a particular T2R receptor showed a positive response to a particular API) | + (a “+” to indicate whether a particular T2R receptor showed a positive response to a particular API) | + (a “+” to indicate whether a particular T2R receptor showed a positive response to a particular API) | + (a “+” to indicate whether a particular T2R receptor showed a positive response to a particular API) | + (a “+” to indicate whether a particular T2R receptor showed a positive response to a particular API)
2 | CCN(CC)CCCC(C)Nc1ccnc2cc(Cl)ccc12 (stereo not drawn) [Chloroquine] | + (a “+” to indicate whether a particular T2R receptor showed a positive response to a particular API) | + (a “+” to indicate whether a particular T2R receptor showed a positive response to a particular API) | + (a “+” to indicate whether a particular T2R receptor showed a positive response to a particular API) | + (a “+” to indicate whether a particular T2R receptor showed a positive response to a particular API) | + (a “+” to indicate whether a particular T2R receptor showed a positive response to a particular API) | + (a “+” to indicate whether a particular T2R receptor showed a positive response to a particular API)
3 | CN(C)CCOC(c1ccccc1)c1ccccc1 [Diphenhydramine] | + (a “+” to indicate whether a particular T2R receptor showed a positive response to a particular API) | + (a “+” to indicate whether a particular T2R receptor showed a positive response to a particular API) | + (a “+” to indicate whether a particular T2R receptor showed a positive response to a particular API) | + (a “+” to indicate whether a particular T2R receptor showed a positive response to a particular API) | + (a “+” to indicate whether a particular T2R receptor showed a positive response to a particular API) | + (a “+” to indicate whether a particular T2R receptor showed a positive response to a particular API)
4 | CN(C)CCC=C1c2ccccc2COc2ccccc21 [Doxepin] | + (a “+” to indicate whether a particular T2R receptor showed a positive response to a particular API) | + (a “+” to indicate whether a particular T2R receptor showed a positive response to a particular API) | + (a “+” to indicate whether a particular T2R receptor showed a positive response to a particular API) | + (a “+” to indicate whether a particular T2R receptor showed a positive response to a particular API) | + (a “+” to indicate whether a particular T2R receptor showed a positive response to a particular API) | + (a “+” to indicate whether a particular T2R receptor showed a positive response to a particular API)
5 | CN(C)CCOC(C)(c1ccccc1)c1ccccn1 (stereo not drawn) [Doxylamine] | + (a “+” to indicate whether a particular T2R receptor showed a positive response to a particular API) | + (a “+” to indicate whether a particular T2R receptor showed a positive response to a particular API) | + (a “+” to indicate whether a particular T2R receptor showed a positive response to a particular API) | + (a “+” to indicate whether a particular T2R receptor showed a positive response to a particular API) | + (a “+” to indicate whether a particular T2R receptor showed a positive response to a particular API) | + (a “+” to indicate whether a particular T2R receptor showed a positive response to a particular API)
6 | CCOC(=O)[C@H](CCc1ccccc1)N[C@@H](C)C(=O)N1CCC[C@H]1C(=O)O [Enalapril] | + (a “+” to indicate whether a particular T2R receptor showed a positive response to a particular API) | + (a “+” to indicate whether a particular T2R receptor showed a positive response to a particular API) | + (a “+” to indicate whether a particular T2R receptor showed a positive response to a particular API) |  | + (a “+” to indicate whether a particular T2R receptor showed a positive response to a particular API) | + (a “+” to indicate whether a particular T2R receptor showed a positive response to a particular API)
7 | COc1ccccc1OCC(O)CO (stereo not drawn) [Guaifenesin] | + (a “+” to indicate whether a particular T2R receptor showed a positive response to a particular API) | + (a “+” to indicate whether a particular T2R receptor showed a positive response to a particular API) |  | + (a “+” to indicate whether a particular T2R receptor showed a positive response to a particular API) | + (a “+” to indicate whether a particular T2R receptor showed a positive response to a particular API) | + (a “+” to indicate whether a particular T2R receptor showed a positive response to a particular API)
8 | CC[N+](C)(CC)CCOC(=O)C(O)(c1ccccc1)C1CCCCC1 (stereo not drawn) [Oxyphenonium] |  | + (a “+” to indicate whether a particular T2R receptor showed a positive response to a particular API) | + (a “+” to indicate whether a particular T2R receptor showed a positive response to a particular API) | + (a “+” to indicate whether a particular T2R receptor showed a positive response to a particular API) | + (a “+” to indicate whether a particular T2R receptor showed a positive response to a particular API) | + (a “+” to indicate whether a particular T2R receptor showed a positive response to a particular API)
